In patent US10774051B2, “6-membered heterocyclic derivatives and pharmaceutical composition comprising the same” (Shionogi & Co., Ltd., priority 2015, dated 2020):

Target: human P2X7 receptor (Homo sapiens, UniProt Q99572, R270H/Y155H)
Test: Evaluation of human P2X7 receptor inhibitory activity (Yo-Pro uptake, BzATP stimulation, FLIPR TETRA)
Type: cell-based
Conditions: 1321N1 cells stably expressing human P2X7 receptor; BzATP stimulation, Yo-Pro uptake; read-out: IC50 (antagonistic activity for the human P2X7 receptor)
Summary of the method: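 Yo-Pro dye uptake triggered by BzATP was monitored by FLIPR in human P2X7-transfected 1321N1 cells (SNP variant) in HEPES-buffered HBSS, pH 7.4-7.5. Compound was dispensed 8 min post-stimulation, then signal read for 20 min; IC50 derived logistically from inhibition of the fluorescence range.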

SMILES	IC50
COc1cn(Cc2ccccc2)c(Nc2ccc3nc(C)sc3c2C)nc1=O [Compound I-0858]	10 nM
COc1cn(Cc2cc(F)c(F)c(F)c2)c(Nc2cc3sc(C)nc3cc2C)nc1=NC#N [Compound I-1285]	27 nM
COc1cn(Cc2cc(F)cc(F)c2)c(Nc2cc3ncccc3cc2C)nc1=O [Compound I-0774]	110 nM
Cn1ccc2c(Nc3nc(=O)c(F)cn3Cc3ccc(F)c(Cl)c3)cccc21 [Compound I-1019]	4 nM
Cc1cc2c(cc1Nc1nc(=O)c(Cl)cn1Cc1ccccc1)OCCO2 [Compound I-0370]	47 nM
COc1cn(Cc2cc(F)cc(Cl)c2)c(Nc2cc(Cl)cc3[nH]ccc23)nc1=O [Compound I-0821]	5 nM
Cc1c(Nc2nc(=O)cnn2Cc2cc(F)c(F)c(F)c2)ccc2[nH]ccc12 [Compound I-1263]	3 nM

Same assay, conditions: 1321N1 cells stably expressing human P2X7 receptor; BzATP stimulation, Yo-Pro uptake; read-out: IC50 (antagonistic activity for the human P2X7 receptor), class symbol

SMILES	IC50
COc1cc(C)c(Nc2nc(=O)c(F)cn2Cc2ccc(F)cc2)cc1OC [Compound I-0209]	< 10 nM
Cc1c(Cl)cccc1Nc1nc(=O)c(Cl)cn1Cc1ccccc1 [Compound I-0011]	10 to 100 nM
CCc1ccccc1CNc1nc(=O)c(OC)cn1Cc1cc(F)cc(F)c1 [Compound I-0454]	10 to 100 nM
CCc1ccccc1Nc1nc(=O)c(Cl)cn1Cc1ccccc1 [Compound I-0105]	100 to 500 nM
COc1cn(Cc2ccccc2)c(Nc2cc(N3CCCC3=O)ccc2C)nc1=O [Compound I-0393]	10 to 100 nM
COc1cc(C)cc(Nc2nc(=O)c(OC)cn2Cc2ccccc2)c1C [Compound I-0281]	< 10 nM
COc1cc(C)cc(Nc2nc(=O)c(OC)cn2Cc2ccc(F)c(Cl)c2)c1C [Compound I-0465]	< 10 nM
Cc1c(Cl)cccc1Nc1nc(=O)c(C(=O)OC(C)(C)C)cn1Cc1ccccc1 [Compound I-0111]	100 to 500 nM
COc1cn(Cc2ccccc2)c(Nc2cc(-c3nnco3)ccc2C)nc1=O [Compound I-0240]	10 to 100 nM
COc1cn(Cc2ccccc2OC(F)F)c(Nc2cccc(Cl)c2C)nc1=O [Compound I-0421]	10 to 100 nM
COc1cn(Cc2ccc(F)c(Cl)c2)c(NCc2cccc(Cl)c2C)nc1=O [Compound I-0451]	100 to 500 nM
CCc1cc(OC)ccc1Nc1nc(=O)c(OC)cn1Cc1cc(F)c(F)c(F)c1 [Compound I-0573]	< 10 nM
Cc1c(Cl)cccc1NC(=O)Cc1cn(Cc2ccccc2)c(Nc2cccc(Cl)c2C)nc1=O [Compound I-0238]	100 to 500 nM
COc1cn(Cc2ccccc2)c(Nc2cc(-n3cccc3)ccc2C)nc1=O [Compound I-0239]	100 to 500 nM
COc1cn(Cc2ccccc2)c(NCc2ccccc2Oc2ccc(C)cc2)nc1=O [Compound I-0066]	500 to 1000 nM
COc1cc(Nc2nc(=O)c(F)cn2Cc2ccc(F)c(Cl)c2)c(C)cc1Cl [Compound I-0533]	< 10 nM
Cc1c(Cl)cccc1Nc1nc(=O)c(F)cn1Cc1ccc(F)cc1 [Compound I-0041]	< 10 nM

Same assay, conditions: antagonistic activity for the human P2X7 receptor; read-out: IC50

SMILES	IC50
COc1cc(Nc2nc(=O)c(OC)cn2Cc2ccc(F)c(F)c2)c(C)cc1F [Compound I-0779]	< 10 nM
COc1ccc(Nc2nc(=O)c(CO)nn2Cc2cc(F)c(F)c(F)c2)c(C)c1 [Compound I-1247]	< 10 nM
Cc1ccc(CF)cc1Nc1nc(=O)c(F)cn1Cc1cc(F)cc(F)c1 [Compound I-1240]	< 10 nM
COc1cn(Cc2ccccc2)c(Nc2cc(-c3cscn3)ccc2C)nc1=O [Compound I-0750]	10 to 100 nM
COc1cn(Cc2cc(F)cc(F)c2)c(Nc2cccc3c(=O)n(C)ccc23)nc1=O [Compound I-0905]	100 to 500 nM
COc1cn(Cc2cc(F)cc(F)c2)c(Nc2cc(OC(F)F)c(C)cc2C)nc1=O [Compound I-0879]	< 10 nM
CCOc1cc(Nc2nc(=O)c(OC)cn2Cc2ccccc2)c(C)cc1F [Compound I-0918]	10 to 100 nM
O=c1nc(Nc2cccc3[nH]ccc23)n(Cc2ccc(F)c(Cl)c2)cc1F [Compound I-1024]	< 10 nM
COc1cn(Cc2cc(F)c(F)c(F)c2)c(Nc2cc(OC(F)(F)F)ccc2C)nc1=O [Compound I-0869]	10 to 100 nM
CCc1ccc(C)c(Nc2nc(=O)c(F)cn2Cc2cc(F)c(F)c(F)c2)c1 [Compound I-1226]	< 10 nM
COc1cc(Nc2nc(=O)c(F)cn2Cc2cc(F)c(F)c(F)c2)c(C)cc1Cl [Compound I-1006]	< 10 nM
CCc1ccc(Nc2nc(=O)c(F)cn2Cc2cc(F)cc(F)c2)c(C)c1 [Compound I-1228]	< 10 nM
COc1cn(Cc2cc(F)cc(Cl)c2)c(Nc2cc(Cl)c(F)cc2C)nc1=O [Compound I-0811]	10 to 100 nM
Cc1cc2[nH]ncc2cc1Nc1nc(=O)c(F)cn1Cc1cc(F)c(F)c(F)c1 [Compound I-1094]	< 10 nM
CCOc1ccc(C)c(Nc2nc(=O)c(F)cn2Cc2ccc(F)c(F)c2)c1 [Compound I-0999]	< 10 nM
Cc1cc(OC(F)(F)F)ccc1Nc1nc(=O)c(F)cn1Cc1cc(F)cc(F)c1 [Compound I-1102]	10 to 100 nM
Cc1nc2cc(Cl)c(Nc3nc(=O)c(F)cn3Cc3cc(F)c(F)c(F)c3)cc2o1 [Compound I-1078]	< 10 nM
COc1ccc(C)c(Nc2nc(=O)c(OC)cn2Cc2cc(F)c(F)c(F)c2)c1 [Compound I-0625]	< 10 nM

SMILES	IC50
COc1cn(Cc2cc(F)cc(Cl)c2)c(Nc2cc3sc(C)nc3cc2C)nc1=O [Compound I-0669]	10 to 100 nM
COc1cn(Cc2ccccc2)c(Nc2cc(C(C)(C)O)ccc2C)nc1=O [Compound I-0731]	10 to 100 nM
COCc1cn(Cc2cc(F)c(F)c(F)c2)c(Nc2cc(-c3nnco3)ccc2C)nc1=O [Compound I-1131]	10 to 100 nM
COc1cc(Nc2nc(=O)c(OC)cn2Cc2cc(F)cc(F)c2)c(C)cc1F [Compound I-0781]	10 to 100 nM
CCc1cc2c(cc1Nc1nc(=O)c(OC)cn1Cc1cc(F)cc(F)c1)OC(F)(F)O2 [Compound I-0729]	100 to 500 nM
COc1cc(C)c(Nc2nc(=O)c(F)cn2Cc2cc(F)c(F)c(F)c2)cc1C(C)C [Compound I-1070]	10 to 100 nM
CCc1ccccc1Nc1nc(=O)c(F)cn1Cc1cc(F)c(F)c(F)c1 [Compound I-1176]	< 10 nM
CCc1ccc(F)c(Nc2nc(=O)c(F)cn2Cc2cc(F)c(F)c(F)c2)c1 [Compound I-1218]	< 10 nM
COc1cn(Cc2ccc(F)c(Cl)c2)c(Nc2cc(OC3CC3)ccc2C)nc1=O [Compound I-0889]	< 10 nM
COc1cn(Cc2ccc(F)c(Cl)c2)c(Nc2cc3c(cc2C)OC(F)(F)O3)nc1=O [Compound I-0727]	100 to 500 nM
COc1cn(Cc2cc(F)c(F)c(F)c2)c(Nc2cccc3c(=O)[nH]ccc23)nc1=O [Compound I-0603]	10 to 100 nM
CCOC(=O)c1nn(Cc2cc(F)c(F)c(F)c2)c(Nc2cc(OC)c(OC)cc2C)nc1=O [Compound I-1252]	10 to 100 nM
Cc1cc2[nH]ncc2cc1Nc1nc(=O)c(F)cn1Cc1ccc(F)c(F)c1 [Compound I-1095]	10 to 100 nM
CCc1ccc(OC)cc1Nc1nc(=O)c(F)cn1Cc1cc(F)c(F)c(F)c1 [Compound I-1191]	< 10 nM
COc1cn(Cc2ccccc2)c(Nc2cccc(C)c2F)nc1=O [Compound I-0761]	100 to 500 nM
COc1cn(Cc2ccc(F)c(Cl)c2)c(Nc2cc3nc(C)sc3cc2C)nc1=O [Compound I-0746]	10 to 100 nM
COc1cn(Cc2cc(F)cc(Cl)c2)c(Nc2cc(-n3cccc3)ccc2C)nc1=O [Compound I-0654]	10 to 100 nM
